According to US20230059009A1, “INHIBITORS OF LIN28 AND METHODS OF USE THEREOF” (The Regents of the University of California, priority 2019, published 2023):

Legend:
22RV1 [1] = test: Cell viability, MTT assay, 22RV1; type: cell-based; details: Homo sapiens, 22RV1 (Prostate), 96 hr
Experimental: (§1) To measure cell viability, cell titer glow (CTG, Promega CellTiter-Glo 2.0 Assay) and MTT assays (SigmaAldrich, Cell Proliferation Kit I) were performed. Briefly, cells were serum starved overnight prior to seeding in 96-well plates. Following 24 h incubation, cells were treated with increasing concentrations of JGJ compounds for 96 hr. At assay read-out, CellTiter-Glo reagent was added and luminescence was measured after 10-minutes incubation at room temperature. For the MTT assay, MTT labeling reagent was added and incubated for 4 h. Subsequently, medium was removed and 50 μL DMSO was added to solubilize the crystals, and absorbance was measured at 570 nm. Cell viability was calculated as (Sample-Background)/(Control-Background).

22RV1 [2] = test: Cell viability, CellTiter-Glo (CTG), 22RV1; type: cell-based; details: Homo sapiens, 22RV1 (Prostate), 96 hr
Experimental: as §1

MDA-MB231 = test: Cell viability, CTG, MDA-MB231; type: cell-based; details: Homo sapiens, MDA-MB-231, MDA-MB231 (Breast)
Experimental: as §1, with “(Sample-Background)/(Control-Background). Current standard of care drugs, Enzalutamide, Palbociclib and Cetuximab were used as comparative controls.” for “(Sample-Background)/(Control-Background).”

MCF7 [3] = test: Cell viability, CTG, MCF7; type: cell-based; details: Homo sapiens, MCF7 (Breast)
Experimental: as §1, with “(Sample-Background)/(Control-Background). Current standard of care drugs, Enzalutamide, Palbociclib and Cetuximab were used as comparative controls.” for “(Sample-Background)/(Control-Background).”

HCT-116 = test: Cell viability, CTG, HCT-116; type: cell-based; details: Homo sapiens, HCT-116 (Colon)
Experimental: as §1, with “(Sample-Background)/(Control-Background). Current standard of care drugs, Enzalutamide, Palbociclib and Cetuximab were used as comparative controls.” for “(Sample-Background)/(Control-Background).”

SW620 [4] = test: Cell viability, MTT assay, SW620; type: cell-based; details: Homo sapiens, SW-620, SW620 (Colon)
Experimental: as §1, with “(Sample-Background)/(Control-Background). Current standard of care drugs, Enzalutamide, Palbociclib and Cetuximab were used as comparative controls.” for “(Sample-Background)/(Control-Background).”

SW620 [5] = test: Cell viability, CTG, SW620; type: cell-based; details: Homo sapiens, SW-620, SW620 (Colon)
Experimental: as §1, with “(Sample-Background)/(Control-Background). Current standard of care drugs, Enzalutamide, Palbociclib and Cetuximab were used as comparative controls.” for “(Sample-Background)/(Control-Background).”

SW480 [6] = test: Cell viability, MTT assay, SW480; type: cell-based; details: Homo sapiens, SW480 (Colon)
Experimental: as §1, with “(Sample-Background)/(Control-Background). Current standard of care drugs, Enzalutamide, Palbociclib and Cetuximab were used as comparative controls.” for “(Sample-Background)/(Control-Background).”

SW480 [7] = test: Cell viability, CTG, SW480; type: cell-based; details: Homo sapiens, SW480 (Colon)
Experimental: as §1

ASPC-1 = test: Cell viability, CTG, ASPC-1; type: cell-based; details: Homo sapiens, ASPC1, ASPC-1 (Pancreatic)
Experimental: as §1, with “(Sample-Background)/(Control-Background). Current standard of care drugs, Enzalutamide, Palbociclib and Cetuximab were used as comparative controls.” for “(Sample-Background)/(Control-Background).”

CAPAN-1 = test: Cell viability, CTG, CAPAN-1; type: cell-based; details: Homo sapiens, CAPAN-1 (Pancreatic)
Experimental: as §1, with “(Sample-Background)/(Control-Background). Current standard of care drugs, Enzalutamide, Palbociclib and Cetuximab were used as comparative controls.” for “(Sample-Background)/(Control-Background).”

Caco2 permeability = type: in vitro ADME; details: human, Caco-2, Conc. 5 uM
[8] = Microsomal stability, CD-1 Mouse; type: in vitro ADME; details: Conc. 5 uM
[9] = Microsomal stability, Human; type: in vitro ADME; details: Conc. 5 uM
CYP 1A2 = molecular target: T1, CYP 1A2 (Homo sapiens, UniProt P05177); test: CYP inhibition 1A2; type: in vitro ADME; parameters: unit not given here; details: Conc. 10 uM
T1 sequence (P05177 1-516): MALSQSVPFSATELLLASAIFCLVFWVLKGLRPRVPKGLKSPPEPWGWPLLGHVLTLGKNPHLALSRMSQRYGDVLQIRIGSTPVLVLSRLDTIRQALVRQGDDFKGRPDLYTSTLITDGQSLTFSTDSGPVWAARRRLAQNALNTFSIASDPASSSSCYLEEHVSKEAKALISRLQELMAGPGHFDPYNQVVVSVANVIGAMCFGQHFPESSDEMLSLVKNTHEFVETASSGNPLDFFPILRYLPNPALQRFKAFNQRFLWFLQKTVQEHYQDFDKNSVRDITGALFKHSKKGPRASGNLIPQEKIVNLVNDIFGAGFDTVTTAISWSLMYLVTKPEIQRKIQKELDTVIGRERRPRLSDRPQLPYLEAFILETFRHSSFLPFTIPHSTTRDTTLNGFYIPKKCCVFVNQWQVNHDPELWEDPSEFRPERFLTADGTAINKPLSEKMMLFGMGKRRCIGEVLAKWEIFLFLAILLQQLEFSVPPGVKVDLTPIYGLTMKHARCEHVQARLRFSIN

CYP 2B6 = molecular target: T2, CYP 2B6 (Homo sapiens, UniProt P20813); test: CYP inhibition 2B6; type: in vitro ADME; parameters: unit not given here; details: Conc. 10 uM
T2 sequence (P20813 1-491): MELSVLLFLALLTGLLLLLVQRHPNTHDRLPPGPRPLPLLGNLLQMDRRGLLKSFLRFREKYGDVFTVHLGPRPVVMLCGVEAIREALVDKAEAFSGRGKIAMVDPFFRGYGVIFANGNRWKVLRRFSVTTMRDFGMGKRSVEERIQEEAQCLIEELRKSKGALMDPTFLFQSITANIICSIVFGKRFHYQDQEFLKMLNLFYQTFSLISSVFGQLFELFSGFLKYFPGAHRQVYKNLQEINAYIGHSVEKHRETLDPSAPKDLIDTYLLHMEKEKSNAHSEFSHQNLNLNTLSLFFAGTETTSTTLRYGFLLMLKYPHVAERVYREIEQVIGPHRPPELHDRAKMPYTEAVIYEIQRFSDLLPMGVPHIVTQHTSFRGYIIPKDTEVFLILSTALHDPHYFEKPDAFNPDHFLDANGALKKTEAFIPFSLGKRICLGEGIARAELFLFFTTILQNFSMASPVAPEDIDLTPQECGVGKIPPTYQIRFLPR

CYP 2C8 = molecular target: T3, CYP 2C8 (Homo sapiens, UniProt P10632); test: CYP inhibition 2C8; type: in vitro ADME; parameters: unit not given here; details: Conc. 10 uM
T3 sequence (P10632 1-490): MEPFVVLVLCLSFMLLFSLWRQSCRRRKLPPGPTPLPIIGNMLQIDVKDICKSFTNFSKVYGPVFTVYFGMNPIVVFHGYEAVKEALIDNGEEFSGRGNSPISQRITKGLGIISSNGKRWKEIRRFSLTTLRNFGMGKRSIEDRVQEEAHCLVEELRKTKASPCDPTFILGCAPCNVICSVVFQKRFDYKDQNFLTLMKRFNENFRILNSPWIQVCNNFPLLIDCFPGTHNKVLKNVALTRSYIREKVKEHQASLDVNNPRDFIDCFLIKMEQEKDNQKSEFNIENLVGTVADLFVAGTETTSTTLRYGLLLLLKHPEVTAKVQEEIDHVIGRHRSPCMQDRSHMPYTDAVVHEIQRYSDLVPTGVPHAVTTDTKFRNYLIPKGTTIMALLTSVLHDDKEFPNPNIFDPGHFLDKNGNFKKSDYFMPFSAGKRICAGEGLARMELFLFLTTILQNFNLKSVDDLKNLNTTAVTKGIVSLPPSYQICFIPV

CYP 2C9 = CYP 2C9 (Homo sapiens, UniProt P11712); test: CYP inhibition 2C9; type: in vitro ADME; parameters: unit not given here; details: Conc. 10 uM
Chain of CYP 2C9 (P11712 whole entry): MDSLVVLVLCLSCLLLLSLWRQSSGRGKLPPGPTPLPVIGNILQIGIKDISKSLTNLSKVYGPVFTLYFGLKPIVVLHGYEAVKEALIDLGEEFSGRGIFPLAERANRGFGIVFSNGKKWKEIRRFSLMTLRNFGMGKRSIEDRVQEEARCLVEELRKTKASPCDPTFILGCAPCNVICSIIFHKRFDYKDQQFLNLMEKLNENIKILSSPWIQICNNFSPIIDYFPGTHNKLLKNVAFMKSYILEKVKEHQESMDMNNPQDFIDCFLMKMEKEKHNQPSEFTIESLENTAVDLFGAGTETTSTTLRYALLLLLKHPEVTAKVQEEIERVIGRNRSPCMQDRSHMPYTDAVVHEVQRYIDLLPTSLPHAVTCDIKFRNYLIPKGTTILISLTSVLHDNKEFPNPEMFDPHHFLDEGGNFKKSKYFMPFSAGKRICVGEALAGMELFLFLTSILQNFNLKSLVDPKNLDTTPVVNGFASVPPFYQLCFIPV

CYP 2C19 = CYP 2C19 (Homo sapiens, UniProt P33261); test: CYP inhibition 2C19; type: in vitro ADME; parameters: unit not given here; details: Conc. 10 uM
Chain of CYP 2C19 (P33261 whole entry): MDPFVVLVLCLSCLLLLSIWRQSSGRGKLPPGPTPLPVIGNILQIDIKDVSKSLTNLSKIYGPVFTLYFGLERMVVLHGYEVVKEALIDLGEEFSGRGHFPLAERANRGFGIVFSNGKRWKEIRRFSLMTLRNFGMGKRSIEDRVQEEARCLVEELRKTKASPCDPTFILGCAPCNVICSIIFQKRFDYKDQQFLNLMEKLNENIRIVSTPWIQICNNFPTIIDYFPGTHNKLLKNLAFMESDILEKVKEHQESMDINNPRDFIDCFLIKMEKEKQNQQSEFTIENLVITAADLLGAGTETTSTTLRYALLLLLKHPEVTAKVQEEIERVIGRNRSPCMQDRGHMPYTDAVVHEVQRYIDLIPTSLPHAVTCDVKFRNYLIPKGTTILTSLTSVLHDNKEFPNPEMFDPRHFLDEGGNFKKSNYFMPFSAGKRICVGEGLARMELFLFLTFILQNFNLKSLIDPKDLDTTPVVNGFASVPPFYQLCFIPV

CYP 2D6 = CYP 2D6 (Homo sapiens, UniProt P10635); test: CYP inhibition 2D6; type: in vitro ADME; parameters: unit not given here; details: Conc. 10 uM
Chain of CYP 2D6 (P10635 whole entry): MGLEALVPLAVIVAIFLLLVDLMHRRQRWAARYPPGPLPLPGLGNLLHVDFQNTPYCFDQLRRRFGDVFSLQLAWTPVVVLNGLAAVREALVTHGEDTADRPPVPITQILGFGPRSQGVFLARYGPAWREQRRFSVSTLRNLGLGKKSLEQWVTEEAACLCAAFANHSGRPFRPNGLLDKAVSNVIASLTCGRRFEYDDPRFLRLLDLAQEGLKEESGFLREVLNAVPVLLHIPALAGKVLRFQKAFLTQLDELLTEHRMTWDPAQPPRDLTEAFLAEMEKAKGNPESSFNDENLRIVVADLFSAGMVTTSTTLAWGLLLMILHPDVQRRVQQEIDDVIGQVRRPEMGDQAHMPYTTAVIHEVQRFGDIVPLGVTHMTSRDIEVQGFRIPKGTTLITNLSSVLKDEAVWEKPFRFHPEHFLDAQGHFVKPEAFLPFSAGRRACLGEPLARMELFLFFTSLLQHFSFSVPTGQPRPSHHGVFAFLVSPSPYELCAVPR

MYC-driven cancers = test: Cell viability and cell counting assays in cancer cells; type: cell-based; details: TNBC, CRPC, lung and colorectal adenocarcinoma cells
Experimental: To test whether LN1632 and novel analogs thereof affect cancer cell growth, cell viability and cell counting assays in TNBC (FIG. 14B-D), castration resistant prostate cancer cells (CRPC, FIG. 15A-C) and colorectal cancer cells (CRC, FIG. 15A-C) were performed.
as §1, with “(Sample-Background)/(Control-Background). Current standard of care drugs, Enzalutamide, Palbociclib and Cetuximab were used as comparative controls.” for “(Sample-Background)/(Control-Background).”

BT-549 = test: Cell viability, MTT assay, BT-549; type: cell-based; details: Homo sapiens, BT-549 (Breast)
Experimental: as §1, with “(Sample-Background)/(Control-Background). Current standard of care drugs, Enzalutamide, Palbociclib and Cetuximab were used as comparative controls.” for “(Sample-Background)/(Control-Background).”

MCF7 [10] = test: Cell viability, MTT assay, MCF7; type: cell-based; details: Homo sapiens, MCF7 (Breast)
Experimental: as §1, with “(Sample-Background)/(Control-Background). Current standard of care drugs, Enzalutamide, Palbociclib and Cetuximab were used as comparative controls.” for “(Sample-Background)/(Control-Background).”

LSCs = test: Colony forming capacity (CFC) of iMLL-AF9 LT-HSC derived LSCs; type: cell-based, mouse; details: 200 nM Ara-C or 30 μM 1632, 48 h
Excerpt: In addition, Lin28 was independently found to be a key driver in MLL-associated leukemias (56). In order to further characterize the role of Lin28/let-7 in regulating AML, LSC proliferation and therapy resistance in vivo, we used a doxycycline (DOX) inducible, transgenic mouse model for MLL-AF9-driven AML (iMLL-AF9 (57)). In this model, long-term HSC (LT-HSC, Lin^−CD34^−[…] c-Kit^+ CD150^+ CD48^−) derived AML blasts closely mirror an LSC-like phenotype resulting in a particularly aggressive, Cytarabine (Ara-C) resistant AML (57). […] Moreover, relapsed AML cells arising from rLSCs after treatment with Ara-C (100 mg/kg) at d+60 were even further enriched in Lin28b expression (FIG. 2B). Additionally, levels of both, let-7a and let-7b miRNAs, negatively correlated with increased Lin28b in rLSCs (FIG. 2C) (10, 39). Our findings are consistent with papers reporting that increased Lin28 correlates with disease recurrence post chemotherapy in colon and liver cancer stem cells (22, 58).
As Lin28 is overexpressed human AML, LSCs and rLSCs, we sought to determine if genetic Lin28b or pharmacologic Lin28/let-7 inhibition via LN1632 can abrogate proliferation of LSCs and thus overcome their therapy resistance. […]

[11] = microsomes, read-out: Microsomal stability T½

Q: What does the source list for CC(=O)Nc1cc(F)cc(-c2ccc3[nH]cc(-c4ccccc4)c3n2)c1 [JGJ037, N-(3-Fluoro-5-(3-phenyl-1H-pyrrolo[3,2-b]pyridin-5-yl)phenyl)acetamide]?
A: IC50 (22RV1 [1]): 2000 nM; IC50 (22RV1 [2]): 3000 nM; IC50 (MDA-MB231): 11 µM; IC50 (MCF7 [3]): 15 µM; IC50 (HCT-116): 76 µM; IC50 (SW620 [4]): 8.5 µM; IC50 (SW620 [5]): 15 µM; IC50 (SW480 [6]): 26 µM; IC50 (SW480 [7]): 39 µM; IC50 (ASPC-1): 31 µM; IC50 (CAPAN-1): 22 µM; Papp A→B at 5 uM (Caco2 permeability): 0.44 ×10⁻⁶ cm/s; Papp B→A at 5 uM (Caco2 permeability): 1.69 ×10⁻⁶ cm/s; efflux ratio at 5 uM (Caco2 permeability): 3.9; recovery at 5 uM (Caco2 permeability; read-out: Caco2 Mean A-B % Recovery): 47%; Microsomal stability % Remaining at T30 [8]: T30 = 78.6%; microsomal CLint at 5 uM ([8]; microsomes): 14.9 µL/min/mg; half-life at 5 uM [8, 11]: 93 min; Microsomal stability % Remaining at T30 [9]: T30 = 91.2%; microsomal CLint at 5 uM ([9]; microsomes): 11.6 µL/min/mg; half-life at 5 uM [9, 11]: > 120 min; CYP inhibition 1A2 (CYP 1A2): 88.9; CYP inhibition 2B6 (CYP 2B6): 69.6; CYP inhibition 2C8 (CYP 2C8): 90.5; CYP inhibition 2C9 (CYP 2C9): 86.6; CYP inhibition 2C19 (CYP 2C19): 98.3; CYP inhibition 2D6 (CYP 2D6): 93.9; Proliferation and apoptosis of cancer cells (MYC-driven cancers): reduced proliferation and induced apoptosis preferentially in MYC-driven cancers

Q: With CC(=O)c1c(C)c2cnc(Nc3ccc(N4CCNCC4)cn3)nc2n(C2CCCC2)c1=O [Palbociclib, reference compound] as the compound, how does the IC50 (BT-549) read?
A: The IC50 was 72 µM.

Q: And the IC50 (MDA-MB231)?
A: The IC50 was 13 µM.

Q: And the IC50 (MCF7 [10])?
A: The IC50 was 5 µM.

Q: And the IC50 (MCF7 [3])?
A: The IC50 was 32 µM.

Q: With Nc1ccn([C@@H]2O[C@H](CO)[C@@H](O)[C@@H]2O)c(=O)n1 [Ara-C, Cytarabine] as the compound, how does the “Colony forming capacity cell numbers (CFCs) of LSCs” value (LSCs) read?
A: Its value is “did not alter colony forming capacity cell numbers (CFCs)”.
